Reference: patent US9932479B2, “Dyes and compositions, and processes for using same in analysis of protein aggregation and other applications” (Enzo Biochem, Inc., priority 2009, dated 2018)

Key:
[1] = molecular target: T1, recombinant human alpha-synuclein (ASN) aggregate (Homo sapiens, UniProt P37840); assay: Fluorescence excitation and emission spectra of dye in the presence of aggregated alpha-synuclein; type: binding; conditions: 1 μM aggregated ASN, 50 mM Tris-HCl, pH 7.8, 10 μM dye
T1 construct: purchased Sigma-Aldrich
Protocol: (§1) Fluorescent readings were carried out in 50 mM Tris-HCl, pH 7.8 using 10 μM dye. […] Fluorescence excitation and emission spectra were collected on a Cary Eclipse fluorescence spectrophotometer (Varian, Australia). Fluorescence spectra were measured with excitation and emission slit widths set to 5 nm, and at a constant PMT voltage. Spectroscopic measurements were performed in standard quartz cells. All measurements were made at the respective excitation maxima of each dye. All measurements were carried out at room temperature.

[2] = Fluorescence excitation and emission spectra of dye freely dissolved in buffer; type: physicochemical; conditions: 50 mM Tris-HCl, pH 7.8, 10 μM dye, room temperature
Protocol: as §1

Row | In the presence of aggregate: Emission wavelength [1] [nm] | In the presence of aggregate: Excitation wavelength [1] [nm] | Dye freely dissolved in buffer: Emission wavelength [2] [nm] | Dye freely dissolved in buffer: Excitation wavelength [2] [nm] | SMILES
1 | 617 | 534 | 614 | 502 | CCN(CC)c1ccc(/C=C/c2cc[n+](CCOCC[n+]3ccc(/C=C/c4ccc(N(CC)CC)cc4)cc3)cc2)cc1.[I-].[I-] [Yat 2149]
2 | 623 | 550 | – | – | CN(C)c1ccc(/C=C/c2cc[n+](Cc3ccccc3C[n+]3ccc(/C=C/c4ccc(N(C)C)cc4)cc3)cc2)cc1.[Br-].[Br-] [Dye S43]
3 | 625 | 553 | – | – | CCN(CC)c1ccc(/C=C/c2cc[n+](Cc3ccccc3C[n+]3ccc(/C=C/c4ccc(N(CC)CC)cc4)cc3)cc2)cc1.[Br-].[Br-] [Yat 2148]
4 | 613 | 535 | 620 | 500 | CCN(CC)c1ccc(/C=C/c2cc[n+](CCCC[n+]3ccc(/C=C/c4ccc(N(CC)CC)cc4)cc3)cc2)cc1.[I-].[I-] [Yat 2134]
